Where “and” joins values, the source holds several entries; their conditions need not be identical. Identical values can stand only once. Records with an inconclusive call do not appear.
Test system: BDF1 mice, Friend leukemia sc, tumor weight T/C
Experiment: NCI In Vivo Anticancer Drug Screen. Data for tumor model Friend Virus Leukemia (Solid) (subcutaneous) in B6D2F1 (BDF1) mice
Conditions: endpoint: mean tumor weight, higher = larger tumour
Experimental: The antitumor activity of compounds was measured in mice bearing transplantable tumors. Survival or tumor size were measured and the results are expressed as the measurement made in the treated group (T) divided by the measurement made in the vehicle treated control group (C). The tumor model used in this assay is Friend Virus Leukemia (Solid) (subcutaneous) in B6D2F1 (BDF1) mice

[1] = dose: 125.0 mg/kg/injection, schedule: Q01DX011 (ip), vehicle: carboxymethylcellulose (CMC)
[2] = dose: 15.0 mg/kg/injection, schedule: Q01DX011 (ip), vehicle: carboxymethylcellulose (CMC)
[3] = dose: 30.0 mg/kg/injection, schedule: Q01DX011 (ip), vehicle: carboxymethylcellulose (CMC)
[4] = dose: 25.0 mg/kg/injection, schedule: Q01DX011 (ip), vehicle: carboxymethylcellulose (CMC)
[5] = dose: 60.0 mg/kg/injection, schedule: Q01DX011 (ip), vehicle: carboxymethylcellulose (CMC)
[6] = dose: 120.0 mg/kg/injection, schedule: Q01DX011 (ip), vehicle: carboxymethylcellulose (CMC)

S=c1nc[nH]c2nc[nH]c12
T/C (dose: 0.03 mg/kg/injection, schedule: Q01DX011 (ip), vehicle: carboxymethylcellulose (CMC)): 55 % of control | T/C (dose: 0.05 mg/kg/injection, schedule: Q01DX011 (ip), vehicle: carboxymethylcellulose (CMC)): 61 % of control | T/C (dose: 3.5 mg/kg/injection, schedule: Q01DX011 (ip), vehicle: carboxymethylcellulose (CMC)): 21 % of control | T/C (dose: 5.0 mg/kg/injection, schedule: Q01DX011 (ip), vehicle: carboxymethylcellulose (CMC)): 2 % of control and 10 % of control and 12 % of control | T/C (dose: 7.0 mg/kg/injection, schedule: Q01DX011 (ip), vehicle: carboxymethylcellulose (CMC)): 13 % of control | T/C (dose: 14.0 mg/kg/injection, schedule: Q01DX011 (ip), vehicle: carboxymethylcellulose (CMC)): 9 % of control | T/C (dose: 42.0 mg/kg/injection, schedule: Q01DX011 (ip), vehicle: carboxymethylcellulose (CMC)): 4 % of control and 7 % of control and 16 % of control

N#CCSc1nc(N)nc2nc[nH]c12
T/C (dose: 31.25 mg/kg/injection, schedule: Q01DX011 (ip), vehicle: carboxymethylcellulose (CMC)): 83 % of control | T/C (dose: 62.5 mg/kg/injection, schedule: Q01DX011 (ip), vehicle: carboxymethylcellulose (CMC)): 40 % of control | T/C [1]: 31 % of control

C[C@]12C=CC(=O)C=C1CC[C@@H]1[C@@H]2C(=O)C[C@@]2(C)[C@H]1CC[C@]2(O)C(=O)CO
T/C (dose: 10.0 mg/kg/injection, schedule: Q01DX011 (sc), vehicle: steriod suspending solution): 92 % of control | T/C (dose: 20.0 mg/kg/injection, schedule: Q01DX011 (sc), vehicle: steriod suspending solution): 27 % of control | T/C (dose: 25.0 mg/kg/injection, schedule: Q01DX011 (sc), vehicle: steriod suspending solution): 23 % of control | T/C (dose: 50.0 mg/kg/injection, schedule: Q01DX011 (sc), vehicle: steriod suspending solution): 11 % of control | T/C (dose: 100.0 mg/kg/injection, schedule: Q01DX011 (sc), vehicle: steriod suspending solution): 9 % of control | T/C (dose: 200.0 mg/kg/injection, schedule: Q01DX011 (sc), vehicle: steriod suspending solution): 11 % of control

Cc1nc2nc(N)nc(N)c2nc1C
T/C (dose: 13.12 mg/kg/injection, schedule: Q01DX011 (ip), vehicle: carboxymethylcellulose (CMC)): 103 % of control | T/C (dose: 26.25 mg/kg/injection, schedule: Q01DX011 (ip), vehicle: carboxymethylcellulose (CMC)): 89 % of control | T/C (dose: 52.5 mg/kg/injection, schedule: Q01DX011 (ip), vehicle: carboxymethylcellulose (CMC)): 52 % of control | T/C (dose: 105.0 mg/kg/injection, schedule: Q01DX011 (ip), vehicle: carboxymethylcellulose (CMC)): 61 % of control

NNC(=O)c1ccncc1
T/C [2]: 80 % of control | T/C [3]: 75 % of control | T/C (dose: 121.0 mg/kg/injection, schedule: Q01DX011 (ip), vehicle: carboxymethylcellulose (CMC)): 55 % of control

C=C(C)C(=O)OCC1CO1 (configuration not stated)
T/C (dose: 50.0 mg/kg/injection, schedule: Q01DX011 (ip), vehicle: water): 99 % of control | T/C (dose: 100.0 mg/kg/injection, schedule: Q01DX011 (ip), vehicle: water): 110 % of control

O=C1C=CC(=O)O1 (tested in a mixture with another compound)
T/C (dose: 7.5 mg/kg/injection, schedule: Q#A X022 (ip), vehicle: carboxymethylcellulose (CMC)): 58 % of control | T/C (dose: 15.5 mg/kg/injection, schedule: Q#A X022 (ip), vehicle: carboxymethylcellulose (CMC)): 84 % of control | T/C (dose: 125.0 mg/kg/injection, schedule: Q#A X022 (ip), vehicle: carboxymethylcellulose (CMC)): 96 % of control | T/C (dose: 250.0 mg/kg/injection, schedule: Q#A X022 (ip), vehicle: carboxymethylcellulose (CMC)): 33 % of control

O=C1NC2C(NC(=O)N2Cl)N1Cl (configuration not stated)
T/C (dose: 20.0 mg/kg/injection, schedule: Q01DX011 (ip), vehicle: saline): 105 % of control | T/C (dose: 40.0 mg/kg/injection, schedule: Q01DX011 (ip), vehicle: saline): 103 % of control

O=[N+]([O-])c1ccccc1CSc1ncnc2nc[nH]c12
T/C [2]: 112 % of control | T/C (dose: 31.0 mg/kg/injection, schedule: Q01DX011 (ip), vehicle: carboxymethylcellulose (CMC)): 111 % of control | T/C (dose: 62.0 mg/kg/injection, schedule: Q01DX011 (ip), vehicle: carboxymethylcellulose (CMC)): 55 % of control and 48 % of control | T/C [1]: 26 % of control and 48 % of control | T/C (dose: 250.0 mg/kg/injection, schedule: Q01DX011 (ip), vehicle: carboxymethylcellulose (CMC)): 7 % of control | T/C (dose: 500.0 mg/kg/injection, schedule: Q01DX011 (ip), vehicle: carboxymethylcellulose (CMC)): 2 % of control

CC(C)(CC(=O)O)CC(=O)OCC(=O)[C@@]1(O)CC[C@H]2[C@@H]3CCC4=CC(=O)C=C[C@]4(C)[C@H]3[C@@H](O)C[C@@]21C
T/C (dose: 9.0 mg/kg/injection, schedule: Q01DX011 (sc), vehicle: steriod suspending solution): 61 % of control | T/C (dose: 19.0 mg/kg/injection, schedule: Q01DX011 (sc), vehicle: steriod suspending solution): 58 % of control | T/C (dose: 37.5 mg/kg/injection, schedule: Q01DX011 (sc), vehicle: steriod suspending solution): 48 % of control | T/C (dose: 38.0 mg/kg/injection, schedule: Q01DX011 (sc), vehicle: steriod suspending solution): 50 % of control | T/C (dose: 75.0 mg/kg/injection, schedule: Q01DX011 (sc), vehicle: steriod suspending solution): 46 % of control and 47 % of control | T/C (dose: 150.0 mg/kg/injection, schedule: Q01DX011 (sc), vehicle: steriod suspending solution): 46 % of control and 47 % of control | T/C (dose: 300.0 mg/kg/injection, schedule: Q01DX011 (sc), vehicle: steriod suspending solution): 37 % of control and 38 % of control | T/C (dose: 600.0 mg/kg/injection, schedule: Q01DX011 (sc), vehicle: steriod suspending solution): 31 % of control

O=c1[nH]c(=O)n(C2CC(O)C(CO)O2)cc1F (configuration not stated)
T/C (dose: 16.0 mg/kg/injection, schedule: Q01DX011 (ip), vehicle: saline): 92 % of control | T/C [4]: 109 % of control | T/C (dose: 32.0 mg/kg/injection, schedule: Q01DX011 (ip), vehicle: saline): 97 % of control | T/C [5]: 72 % of control and 47 % of control | T/C (dose: 84.0 mg/kg/injection, schedule: Q01DX011 (ip), vehicle: saline): 119 % of control | T/C (dose: 100.0 mg/kg/injection, schedule: Q01DX011 (ip), vehicle: carboxymethylcellulose (CMC)): 4 % of control and 16 % of control | T/C [6]: 18 % of control | T/C (dose: 126.0 mg/kg/injection, schedule: Q01DX011 (ip), vehicle: saline): 16 % of control and 30 % of control

CNCc1ccccc1
T/C (dose: 43.5 mg/kg/injection, schedule: Q01DX011 (ip), vehicle: saline): 110 % of control | T/C (dose: 87.0 mg/kg/injection, schedule: Q01DX011 (ip), vehicle: saline): 100 % of control

COc1ccc2c(c1OC)C(=O)O[C@@H]2[C@H]1c2c(cc3c(c2OC)OCO3)CCN1C
T/C (dose: 50.0 mg/kg/injection, schedule: Q01DX011 (ip), vehicle: saline): 110 % of control | T/C (dose: 100.0 mg/kg/injection, schedule: Q01DX011 (ip), vehicle: saline): 99 % of control | T/C (dose: 200.0 mg/kg/injection, schedule: Q01DX011 (ip), vehicle: saline): 85 % of control

Nc1nc(SCc2ccccc2Cl)c2ncn(C3OC(CO)C(O)C3O)c2n1 (configuration not stated)
T/C (dose: 0.38 mg/kg/injection, schedule: Q01DX011 (ip), vehicle: carboxymethylcellulose (CMC)): 102 % of control | T/C (dose: 0.75 mg/kg/injection, schedule: Q01DX011 (ip), vehicle: carboxymethylcellulose (CMC)): 70 % of control | T/C (dose: 1.0 mg/kg/injection, schedule: Q01DX011 (ip), vehicle: carboxymethylcellulose (CMC)): 61 % of control | T/C (dose: 1.5 mg/kg/injection, schedule: Q01DX011 (ip), vehicle: carboxymethylcellulose (CMC)): 83 % of control | T/C (dose: 3.0 mg/kg/injection, schedule: Q01DX011 (ip), vehicle: carboxymethylcellulose (CMC)): 61 % of control and 68 % of control | T/C (dose: 6.0 mg/kg/injection, schedule: Q01DX011 (ip), vehicle: carboxymethylcellulose (CMC)): 61 % of control and 68 % of control | T/C (dose: 12.0 mg/kg/injection, schedule: Q01DX011 (ip), vehicle: carboxymethylcellulose (CMC)): 16 % of control and 41 % of control | T/C [4]: 10 % of control and 28 % of control | T/C (dose: 50.0 mg/kg/injection, schedule: Q01DX011 (ip), vehicle: carboxymethylcellulose (CMC)): 2 % of control

CC1CCOS(=O)O1 (configuration not stated)
T/C (dose: 10.0 mg/kg/injection, schedule: Q01DX011 (ip), vehicle: carboxymethylcellulose (CMC)): 123 % of control | T/C (dose: 20.0 mg/kg/injection, schedule: Q01DX011 (ip), vehicle: carboxymethylcellulose (CMC)): 84 % of control | T/C (dose: 40.0 mg/kg/injection, schedule: Q01DX011 (ip), vehicle: carboxymethylcellulose (CMC)): 72 % of control | T/C (dose: 80.0 mg/kg/injection, schedule: Q01DX011 (ip), vehicle: carboxymethylcellulose (CMC)): 32 % of control

CCC1=C(c2cc(Cl)c3ccccc3c2OCC(=O)O)OC(CC)(C(=O)c2cc(Cl)c3ccccc3c2OCC(=O)O)CC1 (configuration not stated)
T/C [3]: 52 % of control | T/C [5]: 55 % of control | T/C [6]: 63 % of control | T/C (dose: 240.0 mg/kg/injection, schedule: Q01DX011 (ip), vehicle: carboxymethylcellulose (CMC)): 66 % of control

S=P(N1CCOCC1)(N1CC1)N1CC1
T/C (dose: 12.5 mg/kg/injection, schedule: Q01DX011 (ip), vehicle: carboxymethylcellulose (CMC)): 71 % of control | T/C [4]: 41 % of control

Reference: PubChem BioAssay AID228 (DTP/NCI, 2004)
